Experimental data: patent US20250296922A1, “POLYSUBSTITUTED PYRROLIDINE DERIVATIVE, PREPARATION METHOD THEREFOR AND USE THEREOF” (SHANGHAI WENNAI THERAPEUTICS CO LTD, priority 2023, published 2025)

Experiments:
[1] = Stability of the compound in liver microsomes (mouse); type: in vitro ADME, CD-1 mouse; conditions: 1 μM compound, 0.5 mg protein/mL
Protocol: (§1) 2.1.1. working solution: 5 μL of test or control compound stock solution (10 mM DMSO solution) was diluted with 495 μL of acetonitrile (ACN) to obtain an intermediate stock solution (100 μM, 99% ACN).
(§2) 2.2.2 Preparation procedure: An appropriate amount of NADPH powder was weighed and diluted with 10 mM MgCl2 buffer (working solution concentration: 10 mM; final reaction system concentration: 1 mM).
(§3) 2.3.2 Preparation procedure: The appropriate concentration of liver microsomal working solution was prepared in 100 mM potassium phosphate buffer;
(§4) Acetonitrile (ACN) solution at 4° C. containing 200 ng/mL of Tolbutamide and 200 ng/ml of labetalol as internal standards 2.5. Operation steps:
(§5) 2.5.2. Diluting liver microsomes with 100 mM potassium phosphate buffer to a concentration of 0.56 mg/mL.
(§6) 2.5.3. Transferring 445 μL of liver microsomal working solution (0.56 mg/mL) to pre-heated incubation plates T60 and NCF60, and then pre-heating the incubation plates T60 and NCF60 for 10 minutes at 37° C. with shaking. Transferring 54 μL of liver microsomes to each well of the blank plate, adding 6 μL of NAPDH coenzyme solution to the blank plate, and finally transferring 180 μL of termination solution to the blank plate.
(§7) 2.5.4 Adding 5 μL of compound working solution (100 μM) to the incubation plates T60 and NCF60 containing liver microsomes and mixing three times.
(§8) 2.5.5. Adding 50 μL of buffer to the NCF60 plate and mixing three times, starting the timer and incubating at 37° C. for 60 min with the plate shaking.
(§9) 2.5.6. Adding 180 μL of quenching solution and 6 μL of NAPDH coenzyme working solution sequentially to quenching plate TO, making sure that the plate was cold to prevent volatilization of the incubation solution.
(§10) 2.5.7. For plate T60, mixing well three times and immediately transferring 54 μL of mixing solution (0-min time point) to quenching plate TO, then adding 44 μL of NAPDH coenzyme working solution to incubation plate T60. Starting the timer:
(§11) 2.5.8. At the 5, 15, 30, 45 and 60 minute time points, adding 180 μL of quenching solution to the quenching plate and transferring 60 μL of reaction solution from the T60 plate to the quenching plate at each time point.
(§12) 2.5.9. For NCF60 plates, mixing well and transferring 60 μL of reaction solution from the NCF60 incubating solution to a quenching plate containing 180 μL of quenching solution at 60th minute.
(§13) 2.5.10. All plates were mixed on a shaker for 10 min and then centrifuged at 4000 rpm at 4° C. for 20 min.
(§14) 2.5.11. Transferring 80 μL of supernatant to 240 μL of HPLC water and mixing on a
(§15) 2.6.1. Calculating t1/2 and Clint (mic) values based on first-order elimination kinetics: […]

Nav1.8 sodium channel = Nav1.8 sodium channel (Homo sapiens (Human), UniProt Q9Y5Y9); assay: NaV1.8 blocking activity, manual patch clamp; type: cell-based; conditions: CHO cell line stably expressing Nav1.8
Protocol: The NaV1.8 blocking activity was determined by using a manual patch clamp technique to detect the effect of the subject on the channel currents of stably overexpressed Nav1.8.
CHO cell line stably expressing the Nav1.8 sodium channel was used for the experiments, gene information: sodium channel, voltage-gated, type 8, alpha (SCN10A), cDNA strictly similar to GenBank accession number: NM 006514.
Cells were cultured in HAM'S/F-12 medium containing 10% foetal bovine serum and 10 μg/mL Blasticidin, 200 μg/mL Hygromycin B, and 100 μg/mL Zeocin at 37° C., 5% CO2. For expansion or maintenance cultures, cells were treated with 0.25%-Trypsin-EDTA, washed and centrifuged, and then inoculated in 6-cm cell culture dishes with 2.5×10^5lls per cell culture dish (final volume: 5 mL).
Prior to the patch clamp detection, cells were separated with 0.25%-Trypsin-EDTA and 6.5×10^3 cells were spread onto coverslips and incubated (final volume: 500 μL) in 24-well plates for 18 hours, then the test was performed.
50 mM CsCl, 10 mM NaCl, 10 mM HEPES, 60 mM CsF, 20 mM EGTA, and pH was adjusted to 7.2 with CsOH. • Instrument information is provided in Table 2 below:
Prior to Nav1.8 channel current testing, a blank control solution (DMSO) was diluted into 10 ml of extracellular fluid as the working solution. Positive controls and subjects were first diluted with different doses of DMSO depending on the final concentration before being diluted as working solution using extracellular fluid. 100 nM TTX was added to each working solution to block the TTX-S current. The working solution was sonicated for 20 min before performing the patch clamp test detection.
Patch clamp manipulation: firstly, the capillary glass tube was drawn into a recording electrode using a microelectrode puller, then the electrode filled with intracellular fluid was loaded into the microelectrode holder, and the microelectrode manipulator was manoeuvred under an inverted microscope to immerse the electrode into the extracellular fluid and record the electrode resistance (Rpip). The electrode was then slowly contacted to the cell surface and negative pressure suction was given to form a GQ2 seal. At this time, fast capacitance compensation was performed and negative pressure was continually applied to suction through the cell membrane to form a whole-cell recording pattern. Finally, slow capacitance compensation was performed and experimental parameters such as series resistance (Rs) were recorded. No leakage compensation was given.
Drug administration was initiated when the Nav1.8 current was stabilized for whole-cell recordings, and the next concentration was detected after each drug concentration had acted for approximately 5 min (or until the current was stable). Cell-lined coverslips were placed in the recording bath under an inverted microscope, and the blank control external solution as well as the working solution of the compound to be tested flowed sequentially from low to high concentrations through the recording bath by using gravitational perfusion and thus acted on the cells, and a peristaltic pump was used to exchange fluids during the recording. The current detected by each cell in the compound-free external fluid served as its own control. Each concentration was repeated independently 2-3 times. All electrophysiological experiments were performed at room temperature.
The voltage stimulation scheme for whole-cell patch-clamp recording of Nav1.8 currents was as follows: when a whole-cell seal was formed, the voltage was clamped at −120 mV. The resting state recording of sodium currents was performed by maintaining the voltage for 5s and then depolarizing it to 0 mV, and then administering a depolarizing pulse (TP1) to 0 m V for 50 ms for detecting the resting state sodium currents. For half-inactivated state recording, the voltage was first stepped at different voltages and maintained for 5s and then a depolarizing pulse was given to 0 mV to detect the Vhalf. […]

[2] = Stability of the compound in liver microsomes (human); type: in vitro ADME; conditions: 1 μM compound, 0.5 mg protein/mL
Protocol: as §1, §2, §3, §4, §5, §6, §7, §8, §9, §10, §11, §12, §13, §14, §15

[3] = Stability of the compound in liver microsomes (rat); type: in vitro ADME, SD rat; conditions: 1 μM compound, 0.5 mg protein/mL
Protocol: as §1, §2, §3, §4, §5, §6, §7, §8, §9, §10, §11, §12, §13, §14, §15

CYP2C19 = CYP2C19 (Homo sapiens (Human), UniProt P33261); assay: Human liver microsomal CYP inhibition test, CYP2C19; type: in vitro ADME; conditions: human liver microsomes 0.2 mg/mL; substrate S-mephenytoin
Protocol: (§16) 3.1 Buffer solutions: (1) potassium phosphate 100 mM; (2) magnesium chloride, 33 mM;
(§17) 3.2.3 Reservoir for compounds to be tested: Dissolving the compounds to be tested in DMSO to form a 10 mM DMSO solution.
(§18) 3.5.3 Adding 20 μL of substrate solution to the appropriate wells and 20 μL of potassium phosphate buffer to the blank wells;
(§19) 3.5.4 Adding 2 μL of different concentrations of target compounds (final concentrations from 0.05 μM to 50 μM, 7 concentrations in total) or standard inhibitors to each well, with 2 μL of methanol solution in the non-inhibitor and blank wells;
(§20) 3.5.5 Adding 1.012 mL of liver microsomes to 78.988 mL of potassium phosphate buffer, then adding 158 μL of liver microsomes solution to all wells; preheating the well plate for 10 minutes in a 37° C. water bath;
(§21) 3.5.6 Weighing 129.1 mg NADPH (purchased from SyncoZymes Co. Ltd.) and adding to 15.0 mL of 33 Mm MgCl2 solution to give a 10 mM concentration, adding 20 μL to each well;
(§22) 3.5.7 Mixing and incubating the well plate in a 37° C. water bath for 10 minutes, then adding 400 μL of cold termination solution at the appropriate time point;
(§23) 3.5.8 Centrifuging the sample at 4000 rpm for 20 minutes to precipitate the protein. Transferring 200 μL of supernatant to 100 μL of HPLC water and shaking for 10 minutes. The samples were analyzed by LC/MS/MS;
(§24) Percentage inhibition was plotted for blank control and different concentrations of target compounds by using XL fitting or SigmaPlot and the data were analyzed by non-linear regression. IC50 values were determined by using either 3-parameter or 4-parameter logistic equations.

CYP3A-M = CYP3A-M (Homo sapiens, UniProt P08684); assay: Human liver microsomal CYP inhibition test, CYP3A-M (midazolam); type: in vitro ADME; conditions: human liver microsomes 0.2 mg/mL; substrate Midazolam
Protocol: as §16, §17
(§25) 3.4.1 Preparation of human liver microsomal working solution (1.27×) (final concentration: 0.2 mg/mL)
as §18, §19, §20, §21, §22, §23, §24

CYP1A2 = CYP1A2 (Homo sapiens (Human), UniProt P05177); assay: Human liver microsomal CYP inhibition test, CYP1A2; type: in vitro ADME; conditions: microsomes
Protocol: as §16, §17, §25, §18, §19, §20, §21, §22, §23, §24

CYP2C9 = CYP2C9 (Homo sapiens (Human), UniProt P11712); assay: Human liver microsomal CYP inhibition test, CYP2C9; type: in vitro ADME; conditions: human liver microsomes 0.2 mg/mL; substrate Diclofenac
Protocol: as §16, §17, §25, §18, §19, §20, §21, §22, §23, §24

CYP2D6 = CYP2D6 (Homo sapiens (Human), UniProt P10635); assay: Human liver microsomal CYP inhibition test, CYP2D6; type: in vitro ADME; conditions: human liver microsomes 0.2 mg/mL; substrate Dextromethorphan
Protocol: as §16, §17, §25, §18, §19, §20, §21, §22, §23, §24

Chain of Nav1.8 sodium channel (Q9Y5Y9 whole entry): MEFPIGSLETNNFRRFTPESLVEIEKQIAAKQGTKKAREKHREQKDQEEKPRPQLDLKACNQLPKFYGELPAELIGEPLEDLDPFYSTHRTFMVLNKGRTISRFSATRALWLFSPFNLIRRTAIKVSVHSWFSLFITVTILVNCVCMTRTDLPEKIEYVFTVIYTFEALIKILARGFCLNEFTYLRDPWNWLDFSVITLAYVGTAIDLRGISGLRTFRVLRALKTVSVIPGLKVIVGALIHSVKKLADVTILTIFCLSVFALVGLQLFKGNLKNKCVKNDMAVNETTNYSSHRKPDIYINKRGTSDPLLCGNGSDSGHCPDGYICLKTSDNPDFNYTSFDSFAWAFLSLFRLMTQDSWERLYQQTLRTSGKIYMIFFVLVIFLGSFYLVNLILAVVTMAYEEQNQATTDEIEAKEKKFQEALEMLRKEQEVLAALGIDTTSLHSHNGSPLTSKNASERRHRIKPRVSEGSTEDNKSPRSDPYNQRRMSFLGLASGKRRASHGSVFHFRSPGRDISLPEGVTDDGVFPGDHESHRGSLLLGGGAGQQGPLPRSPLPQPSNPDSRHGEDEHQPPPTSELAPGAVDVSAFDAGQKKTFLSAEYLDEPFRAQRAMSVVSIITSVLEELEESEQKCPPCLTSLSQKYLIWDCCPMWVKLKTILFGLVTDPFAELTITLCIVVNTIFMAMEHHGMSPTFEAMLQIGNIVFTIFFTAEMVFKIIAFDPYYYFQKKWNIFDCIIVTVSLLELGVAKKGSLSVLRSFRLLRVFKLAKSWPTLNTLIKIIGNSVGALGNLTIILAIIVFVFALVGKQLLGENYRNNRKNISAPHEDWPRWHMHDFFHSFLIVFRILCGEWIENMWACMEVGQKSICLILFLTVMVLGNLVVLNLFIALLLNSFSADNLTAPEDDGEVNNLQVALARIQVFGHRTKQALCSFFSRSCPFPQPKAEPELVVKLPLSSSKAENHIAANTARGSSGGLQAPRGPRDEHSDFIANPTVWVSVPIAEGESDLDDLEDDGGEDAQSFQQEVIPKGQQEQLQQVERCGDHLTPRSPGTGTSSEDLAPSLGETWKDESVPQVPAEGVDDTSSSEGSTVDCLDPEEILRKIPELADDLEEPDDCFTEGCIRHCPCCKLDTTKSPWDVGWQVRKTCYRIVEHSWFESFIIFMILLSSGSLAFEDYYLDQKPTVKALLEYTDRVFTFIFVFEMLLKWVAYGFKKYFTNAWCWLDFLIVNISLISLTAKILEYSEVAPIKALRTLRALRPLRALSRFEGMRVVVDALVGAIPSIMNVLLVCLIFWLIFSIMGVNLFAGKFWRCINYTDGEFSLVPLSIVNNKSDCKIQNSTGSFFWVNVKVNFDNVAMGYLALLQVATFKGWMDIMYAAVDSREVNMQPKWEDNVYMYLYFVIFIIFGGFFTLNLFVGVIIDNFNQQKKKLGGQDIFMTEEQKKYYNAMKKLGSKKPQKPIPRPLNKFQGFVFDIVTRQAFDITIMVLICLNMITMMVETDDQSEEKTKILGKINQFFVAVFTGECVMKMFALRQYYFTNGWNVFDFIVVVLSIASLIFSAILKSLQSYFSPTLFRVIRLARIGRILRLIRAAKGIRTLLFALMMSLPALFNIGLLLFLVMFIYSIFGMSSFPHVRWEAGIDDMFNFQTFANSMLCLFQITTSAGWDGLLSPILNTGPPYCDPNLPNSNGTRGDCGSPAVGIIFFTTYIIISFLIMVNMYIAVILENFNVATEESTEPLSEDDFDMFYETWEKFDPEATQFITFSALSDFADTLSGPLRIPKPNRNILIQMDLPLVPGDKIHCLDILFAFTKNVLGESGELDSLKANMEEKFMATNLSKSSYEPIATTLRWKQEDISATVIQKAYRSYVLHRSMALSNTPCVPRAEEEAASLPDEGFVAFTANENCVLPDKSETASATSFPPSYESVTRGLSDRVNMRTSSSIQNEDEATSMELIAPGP
Chain of CYP2D6 (P10635 whole entry): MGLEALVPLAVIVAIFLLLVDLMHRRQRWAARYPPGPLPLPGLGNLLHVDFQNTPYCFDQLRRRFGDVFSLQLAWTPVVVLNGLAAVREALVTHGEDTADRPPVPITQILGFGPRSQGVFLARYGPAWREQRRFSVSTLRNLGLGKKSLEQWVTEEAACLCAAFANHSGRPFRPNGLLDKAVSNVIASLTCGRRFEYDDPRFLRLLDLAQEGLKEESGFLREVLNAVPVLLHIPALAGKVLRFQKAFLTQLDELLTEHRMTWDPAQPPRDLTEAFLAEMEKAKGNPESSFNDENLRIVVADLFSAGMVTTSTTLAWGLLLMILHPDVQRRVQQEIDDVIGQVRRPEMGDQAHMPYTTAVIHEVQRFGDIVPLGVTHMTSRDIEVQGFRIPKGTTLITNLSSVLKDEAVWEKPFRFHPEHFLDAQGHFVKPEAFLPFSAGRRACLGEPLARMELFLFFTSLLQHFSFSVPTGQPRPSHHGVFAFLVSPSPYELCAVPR
Chain of CYP2C9 (P11712 whole entry): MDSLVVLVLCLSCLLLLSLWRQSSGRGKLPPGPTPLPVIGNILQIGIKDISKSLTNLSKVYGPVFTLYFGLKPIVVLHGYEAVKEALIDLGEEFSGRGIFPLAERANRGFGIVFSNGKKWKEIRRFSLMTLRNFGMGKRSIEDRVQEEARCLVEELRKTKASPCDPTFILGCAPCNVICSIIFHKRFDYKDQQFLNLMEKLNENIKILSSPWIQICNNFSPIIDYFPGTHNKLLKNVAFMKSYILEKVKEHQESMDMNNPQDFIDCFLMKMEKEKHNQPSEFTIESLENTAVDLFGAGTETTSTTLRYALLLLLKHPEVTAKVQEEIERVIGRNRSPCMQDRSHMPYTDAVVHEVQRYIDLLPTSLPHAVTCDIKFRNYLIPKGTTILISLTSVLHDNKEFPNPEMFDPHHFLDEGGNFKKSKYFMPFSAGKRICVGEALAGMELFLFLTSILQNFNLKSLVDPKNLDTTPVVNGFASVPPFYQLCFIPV
Chain of CYP3A-M (P08684 2-503 limits assumed): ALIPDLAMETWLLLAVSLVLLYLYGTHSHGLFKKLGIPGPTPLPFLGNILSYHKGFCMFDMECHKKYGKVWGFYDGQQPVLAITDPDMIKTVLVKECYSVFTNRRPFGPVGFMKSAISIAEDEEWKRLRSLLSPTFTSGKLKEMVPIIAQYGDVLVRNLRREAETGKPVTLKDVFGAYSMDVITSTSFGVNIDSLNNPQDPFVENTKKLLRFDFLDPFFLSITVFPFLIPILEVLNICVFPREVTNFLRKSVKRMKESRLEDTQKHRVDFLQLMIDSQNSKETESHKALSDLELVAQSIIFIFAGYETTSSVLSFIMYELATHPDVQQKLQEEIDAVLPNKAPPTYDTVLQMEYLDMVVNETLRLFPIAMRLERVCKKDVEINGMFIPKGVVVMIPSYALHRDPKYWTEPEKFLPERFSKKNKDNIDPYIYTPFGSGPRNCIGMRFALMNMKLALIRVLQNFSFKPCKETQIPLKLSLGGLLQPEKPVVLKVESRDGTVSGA
Chain of CYP1A2 (P05177 whole entry): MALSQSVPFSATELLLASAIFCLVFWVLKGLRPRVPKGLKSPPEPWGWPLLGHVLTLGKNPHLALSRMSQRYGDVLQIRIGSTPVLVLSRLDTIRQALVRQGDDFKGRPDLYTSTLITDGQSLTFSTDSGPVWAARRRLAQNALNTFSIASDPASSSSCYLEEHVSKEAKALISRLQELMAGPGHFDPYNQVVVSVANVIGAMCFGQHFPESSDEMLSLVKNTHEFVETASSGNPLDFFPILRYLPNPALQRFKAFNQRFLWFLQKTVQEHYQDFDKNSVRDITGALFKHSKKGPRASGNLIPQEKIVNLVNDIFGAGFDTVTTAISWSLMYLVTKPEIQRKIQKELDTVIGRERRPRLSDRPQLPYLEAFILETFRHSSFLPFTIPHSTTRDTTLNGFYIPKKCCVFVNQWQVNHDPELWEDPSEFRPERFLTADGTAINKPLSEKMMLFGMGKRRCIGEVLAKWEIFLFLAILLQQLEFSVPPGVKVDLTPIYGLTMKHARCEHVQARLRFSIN
Chain of CYP2C19 (P33261 whole entry): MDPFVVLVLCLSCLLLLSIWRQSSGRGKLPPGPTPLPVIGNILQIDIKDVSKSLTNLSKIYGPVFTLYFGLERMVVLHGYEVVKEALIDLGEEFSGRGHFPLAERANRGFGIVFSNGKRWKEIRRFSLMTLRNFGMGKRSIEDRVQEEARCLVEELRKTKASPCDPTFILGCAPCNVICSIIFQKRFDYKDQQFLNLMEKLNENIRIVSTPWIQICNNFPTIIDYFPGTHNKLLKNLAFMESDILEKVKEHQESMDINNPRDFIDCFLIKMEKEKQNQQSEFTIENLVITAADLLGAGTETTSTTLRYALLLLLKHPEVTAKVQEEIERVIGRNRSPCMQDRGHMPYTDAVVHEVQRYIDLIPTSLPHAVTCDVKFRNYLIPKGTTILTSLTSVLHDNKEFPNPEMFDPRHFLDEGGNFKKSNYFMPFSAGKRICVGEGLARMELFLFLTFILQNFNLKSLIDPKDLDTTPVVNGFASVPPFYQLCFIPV

COc1c([C@H]2[C@H](C(=O)Nc3ccnc(C(N)=O)c3)N[C@@](C)(C(F)(F)F)[C@H]2C)ccc(F)c1F [Compound 1, 4-((2R,3S,4S,5R)-3-(3,4-difluoro-2-methoxyphenyl)-4,5-dimethyl-5-(trifluoromethyl)pyrrolidine-2-carboxamido)pyridine amide]
Mouse liver microsomes T½ ([1]; 37° C.): 41.9 min | Mouse liver microsomes Residual (T = 60 min) ([1]; T = 60 min): 37.1% | Blocking rate(%) @10 nM (Nav1.8 sodium channel): 97.98% | IC50 (Nav1.8 sodium channel): 0.0013 µM | Human liver microsomes T½ ([2]; 37° C.): 80.6 min | Human liver microsomes Residual (T = 60 min) ([2]; T = 60 min): 58.4% | Rat liver microsomes T½ ([3]; 37° C.): 18.9 min | Rat liver microsomes Residual (T = 60 min) ([3]; T = 60 min): 11.1%

COc1c([C@H]2[C@H](C(=O)Nc3ccc(F)c(C(=N)NO)c3)N[C@@](C)(C(F)(F)F)[C@H]2C)ccc(F)c1F.Cl [Compound 10, (2R,3S,4S,5R)-3-(3,4-difluoro-2-methoxyphenyl)-aza-(4-fluoro-3-(aza-hydroxycarbamimidoyl)phenyl)-4,5-dimethyl-5-(trifluoromethyl) pyrrolidine-2-carboxamide hydrochloride]
IC50 (CYP2C19): 3.05 µM | IC50 (CYP3A-M): 39.3 µM | IC50 (CYP1A2): > 50 µM | Blocking rate (%) @3 nM (Nav1.8 sodium channel; 3 nM): 95.18% | Blocking rate(%) @10 nM (Nav1.8 sodium channel): 99.13% | IC50 (CYP2C9): > 50 µM | IC50 (CYP2D6): > 50 µM
